# Measurements reported in EP4592286A1, “MACROCYCLIC NITROGEN-CONTAINING CROWN ETHER COMPOUND AND USE THEREOF AS PROTEIN KINASE INHIBITOR” (Artivila Biopharma, priority 2022, dated 2024).
# How the values were obtained:
# JAK1 = JAK1 (Homo sapiens, UniProt P23458); assay: experiment of inhibiting kinase activity (Caliper mobility shift assay), JAK1; format: biochemical; settings: read-out: inhibition rate JAK1; for inhibition at 0.01 µM: at 10 nM
# How it was run: (§1)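 Mobility-shift readout of substrate conversion; % inhibition normalized to uninhibited-enzyme wells (0%) and buffer-only background wells. Dosing: single points at 10 and 100 nM, or 3-fold series from 10 µM (10 conc.), replicates. Kinase + compound 10 min RT, then ATP/substrate.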
# JAK2 = JAK2 (Homo sapiens, UniProt O60674); assay: experiment of inhibiting kinase activity (Caliper mobility shift assay), JAK2; format: biochemical; settings: read-out: inhibition rate JAK2; for inhibition at 0.01 µM: at 10 nM
# How it was run: as §1
# TYK2 = TYK2 (Homo sapiens, UniProt P29597); assay: experiment of inhibiting kinase activity, TYK2; format: biochemical; settings: read-out: inhibition rate TYK2; for inhibition at 0.01 µM: at 10 nM
# Chain of TYK2 (P29597 whole entry): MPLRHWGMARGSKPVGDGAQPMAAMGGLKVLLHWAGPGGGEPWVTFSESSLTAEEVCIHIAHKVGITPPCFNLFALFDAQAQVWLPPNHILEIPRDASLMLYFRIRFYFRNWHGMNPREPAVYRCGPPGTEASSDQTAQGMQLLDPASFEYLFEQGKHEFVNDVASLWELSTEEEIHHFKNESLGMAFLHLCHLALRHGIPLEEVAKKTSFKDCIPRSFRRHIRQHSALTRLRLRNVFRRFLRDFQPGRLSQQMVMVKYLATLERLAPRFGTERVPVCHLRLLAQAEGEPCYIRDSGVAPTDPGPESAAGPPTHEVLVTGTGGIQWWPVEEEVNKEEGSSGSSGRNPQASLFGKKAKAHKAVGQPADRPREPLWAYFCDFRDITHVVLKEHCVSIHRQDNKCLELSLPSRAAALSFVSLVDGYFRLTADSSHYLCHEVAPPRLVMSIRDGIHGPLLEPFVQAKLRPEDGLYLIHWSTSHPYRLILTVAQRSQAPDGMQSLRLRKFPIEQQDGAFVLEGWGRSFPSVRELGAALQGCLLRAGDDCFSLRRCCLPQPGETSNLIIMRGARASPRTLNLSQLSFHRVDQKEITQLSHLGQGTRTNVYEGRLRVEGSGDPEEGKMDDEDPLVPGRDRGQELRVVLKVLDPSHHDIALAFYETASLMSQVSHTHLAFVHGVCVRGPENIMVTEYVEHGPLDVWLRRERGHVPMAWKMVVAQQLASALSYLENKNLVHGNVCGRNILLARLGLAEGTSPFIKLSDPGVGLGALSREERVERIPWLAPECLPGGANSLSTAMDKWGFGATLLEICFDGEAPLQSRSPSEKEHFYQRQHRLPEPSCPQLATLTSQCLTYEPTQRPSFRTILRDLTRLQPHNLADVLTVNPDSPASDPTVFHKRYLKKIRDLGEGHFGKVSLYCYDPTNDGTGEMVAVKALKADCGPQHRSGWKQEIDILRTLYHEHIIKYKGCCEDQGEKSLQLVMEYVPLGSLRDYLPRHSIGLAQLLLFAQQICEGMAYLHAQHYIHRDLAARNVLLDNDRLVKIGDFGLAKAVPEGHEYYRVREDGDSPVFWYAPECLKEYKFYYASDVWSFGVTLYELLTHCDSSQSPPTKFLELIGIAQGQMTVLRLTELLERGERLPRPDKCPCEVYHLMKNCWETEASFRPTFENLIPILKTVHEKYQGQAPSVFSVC
# Description: (§2) The inhibition rates of tested compounds on JAK1, JAK2, JAK3, TYK2, CDK7, CDK9, EGFR (T790M) and LRRK2 kinases were measured. The test concentrations of the compounds were 10 nM and 100 nM, and the detection was performed by replicate wells. Alternatively, compounds were 3-fold serial diluted from 10 µM for 10 concentrations in replicate wells.
# LRRK2 = LRRK2 (Homo sapiens, UniProt Q5S007); assay: experiment of inhibiting kinase activity, LRRK2; format: biochemical; settings: for IC50: kinase activity assay, Table 3
# Chain of LRRK2 (Q5S007 whole entry): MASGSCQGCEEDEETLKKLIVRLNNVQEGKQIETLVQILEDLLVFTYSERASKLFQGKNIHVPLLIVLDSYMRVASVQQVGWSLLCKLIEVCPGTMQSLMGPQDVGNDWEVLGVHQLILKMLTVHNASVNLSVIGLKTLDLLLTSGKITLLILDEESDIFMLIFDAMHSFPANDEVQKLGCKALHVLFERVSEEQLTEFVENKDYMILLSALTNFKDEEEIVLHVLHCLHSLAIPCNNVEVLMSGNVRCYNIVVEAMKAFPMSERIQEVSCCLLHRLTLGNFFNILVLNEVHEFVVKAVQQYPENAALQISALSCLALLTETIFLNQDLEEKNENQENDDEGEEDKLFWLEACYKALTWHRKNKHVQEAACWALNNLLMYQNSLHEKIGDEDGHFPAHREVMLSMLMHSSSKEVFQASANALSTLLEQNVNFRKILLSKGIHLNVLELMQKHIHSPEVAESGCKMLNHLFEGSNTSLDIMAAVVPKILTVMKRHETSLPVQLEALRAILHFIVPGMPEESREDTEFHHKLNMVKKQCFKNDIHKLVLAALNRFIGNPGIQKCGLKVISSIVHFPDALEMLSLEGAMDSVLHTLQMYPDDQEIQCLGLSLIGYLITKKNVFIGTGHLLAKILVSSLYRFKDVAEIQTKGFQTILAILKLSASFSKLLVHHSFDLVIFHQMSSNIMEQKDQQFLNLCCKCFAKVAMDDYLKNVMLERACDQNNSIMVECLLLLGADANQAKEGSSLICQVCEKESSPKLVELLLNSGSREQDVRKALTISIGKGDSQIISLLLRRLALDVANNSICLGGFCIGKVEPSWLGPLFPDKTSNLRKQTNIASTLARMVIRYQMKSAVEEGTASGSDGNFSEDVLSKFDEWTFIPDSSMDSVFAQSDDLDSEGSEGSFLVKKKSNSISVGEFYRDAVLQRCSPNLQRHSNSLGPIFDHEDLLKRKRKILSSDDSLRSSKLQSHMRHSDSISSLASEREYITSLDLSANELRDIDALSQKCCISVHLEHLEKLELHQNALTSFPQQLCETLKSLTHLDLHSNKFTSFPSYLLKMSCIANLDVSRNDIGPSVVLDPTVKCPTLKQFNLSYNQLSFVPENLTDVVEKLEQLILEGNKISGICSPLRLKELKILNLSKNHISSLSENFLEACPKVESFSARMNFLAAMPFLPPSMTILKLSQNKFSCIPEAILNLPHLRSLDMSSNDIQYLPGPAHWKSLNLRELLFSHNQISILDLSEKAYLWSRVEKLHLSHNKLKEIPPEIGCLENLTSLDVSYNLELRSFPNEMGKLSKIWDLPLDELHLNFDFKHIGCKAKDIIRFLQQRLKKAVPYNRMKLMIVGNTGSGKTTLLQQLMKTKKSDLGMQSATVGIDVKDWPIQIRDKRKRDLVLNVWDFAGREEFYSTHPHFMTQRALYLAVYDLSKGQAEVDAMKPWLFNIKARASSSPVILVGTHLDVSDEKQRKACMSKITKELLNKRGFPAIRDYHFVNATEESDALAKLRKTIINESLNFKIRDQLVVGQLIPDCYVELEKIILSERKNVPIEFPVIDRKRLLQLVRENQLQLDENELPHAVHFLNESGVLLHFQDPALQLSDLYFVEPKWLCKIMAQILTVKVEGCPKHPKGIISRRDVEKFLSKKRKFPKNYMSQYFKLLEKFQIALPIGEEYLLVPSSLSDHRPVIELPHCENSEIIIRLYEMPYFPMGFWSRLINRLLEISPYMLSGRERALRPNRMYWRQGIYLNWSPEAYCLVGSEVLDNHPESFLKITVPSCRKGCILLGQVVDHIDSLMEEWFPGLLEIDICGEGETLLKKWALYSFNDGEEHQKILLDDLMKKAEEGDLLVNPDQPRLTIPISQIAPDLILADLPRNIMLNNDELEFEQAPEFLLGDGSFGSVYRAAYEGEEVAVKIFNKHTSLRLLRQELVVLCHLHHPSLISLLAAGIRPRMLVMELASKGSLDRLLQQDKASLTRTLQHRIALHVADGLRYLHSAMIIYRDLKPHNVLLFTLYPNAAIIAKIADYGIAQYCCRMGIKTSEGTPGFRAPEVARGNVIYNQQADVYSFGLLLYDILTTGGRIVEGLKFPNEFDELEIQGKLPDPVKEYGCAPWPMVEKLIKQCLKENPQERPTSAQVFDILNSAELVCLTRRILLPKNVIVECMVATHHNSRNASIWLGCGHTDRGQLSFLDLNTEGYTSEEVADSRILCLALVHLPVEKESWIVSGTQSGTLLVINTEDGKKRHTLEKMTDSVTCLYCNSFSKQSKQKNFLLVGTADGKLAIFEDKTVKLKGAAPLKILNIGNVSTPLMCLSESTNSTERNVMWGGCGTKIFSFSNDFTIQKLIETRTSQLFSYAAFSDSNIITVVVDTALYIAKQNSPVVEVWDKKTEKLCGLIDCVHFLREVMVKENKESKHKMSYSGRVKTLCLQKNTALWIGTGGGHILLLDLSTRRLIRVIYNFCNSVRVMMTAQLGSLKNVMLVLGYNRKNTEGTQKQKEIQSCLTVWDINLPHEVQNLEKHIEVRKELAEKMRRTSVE
# Description: as §2
# wild-type LRRK2 = biological target: T1, wild-type LRRK2 (Homo sapiens, UniProt Q5S007); assay: detection of phosphorylated S935 in HEK293T overexpressing wild-type LRRK2; format: cell-based; settings: pS935, HEK293T overexpressing wild-type LRRK2, 1.5 hours
# T1 construct: pCMV-flag-WT LRRK2 (full-length); expressed in transfected cells; host or cells: HEK293T
# T1 sequence (Q5S007 whole entry): as above
# Description: (§3) Detection of phosphorylated S935 in HEK293T Overexpressing full-length LRRK2 (G2019S) or wild-type LRRK2
# (§4) HEK293T cells was inoculated into a 6-well plate and cultured overnight. The next day, they were transiently transfected with plasmid pcDNA5-FRT/TO-FLAG LRRK2 (G2019S, full-length) or pCMV-flag-WT LRRK2 (full-length) by using Superfect transfection reagent and cultured at 37°C and 5% CO2 for 20-24 hours. The next day, cells were collected, resuspended at a density of 0.48×10^6 cells/ml, and inoculated into a 384-well plate at 50 microliters/well. Compound or DMSO solutions (volume ratio of 0.5%) were added by Tecan, and cultured at 37°C and 5% CO2 for 1.5 hours. After 1.5 hours, the supernatant was discarded, 50 microliters of 8% PFA were added in each well to fix the cells, and the cells were incubated at room temperature for 1 hour. The plate was washed with EL406 plate washer for three times, with 115 microliters of PBST per well, and the culture plate was patted to dryness. The cells were blocked with 50 microliters/well of Licor Odyssey blocking solution (0.1% Tween 20) at room temperature for 1.5 hours. The blocking solution was discarded and the culture plate was patted to dryness. 20 microliters of primary antibody (1:1000(pS935), diluted with Licor Odyssey buffer (0.1% Tween20)) was added into each well, and incubated at 4 °C overnight. The next day, the first antibody was discarded and washing was performed with PBST for five times. 20 microliters of secondary antibody (diluted with Licor Odyssey buffer (0.1% Tween20) at 1:500 and stained with DNA at 1:2000) were added into each well, and incubated at room temperature for 1 hour. The second antibody was discarded, and washing was performed for three times with PBST. The fluorescence intensity was measured by LICOR Odyssey imager Scanner, and the data was analyzed.
# LRRK2 (G2019S) = biological target: T2, LRRK2 (G2019S) (Homo sapiens, UniProt Q5S007, G2019S); assay: detection of phosphorylated S935 in HEK293T overexpressing full-length LRRK2 (G2019S); format: cell-based; settings: pS935, HEK293T overexpressing LRRK2 (G2019S), 1.5 hours
# T2 construct: pcDNA5-FRT/TO-FLAG LRRK2 (G2019S, full-length); expressed in transfected cells; host or cells: HEK293T
# T2 sequence (Q5S007 whole entry G2019S): as the sequence (Q5S007 whole entry) above, with G2019S counted along it
# Description: as §3, §4
# JAK3 = biological target: T3, JAK3 (Homo sapiens, UniProt P52333); assay: experiment of inhibiting kinase activity (Caliper mobility shift assay), JAK3; format: biochemical; settings: at 100 nM; read-out: inhibition rate JAK3
# T3 sequence (P52333 1-1124): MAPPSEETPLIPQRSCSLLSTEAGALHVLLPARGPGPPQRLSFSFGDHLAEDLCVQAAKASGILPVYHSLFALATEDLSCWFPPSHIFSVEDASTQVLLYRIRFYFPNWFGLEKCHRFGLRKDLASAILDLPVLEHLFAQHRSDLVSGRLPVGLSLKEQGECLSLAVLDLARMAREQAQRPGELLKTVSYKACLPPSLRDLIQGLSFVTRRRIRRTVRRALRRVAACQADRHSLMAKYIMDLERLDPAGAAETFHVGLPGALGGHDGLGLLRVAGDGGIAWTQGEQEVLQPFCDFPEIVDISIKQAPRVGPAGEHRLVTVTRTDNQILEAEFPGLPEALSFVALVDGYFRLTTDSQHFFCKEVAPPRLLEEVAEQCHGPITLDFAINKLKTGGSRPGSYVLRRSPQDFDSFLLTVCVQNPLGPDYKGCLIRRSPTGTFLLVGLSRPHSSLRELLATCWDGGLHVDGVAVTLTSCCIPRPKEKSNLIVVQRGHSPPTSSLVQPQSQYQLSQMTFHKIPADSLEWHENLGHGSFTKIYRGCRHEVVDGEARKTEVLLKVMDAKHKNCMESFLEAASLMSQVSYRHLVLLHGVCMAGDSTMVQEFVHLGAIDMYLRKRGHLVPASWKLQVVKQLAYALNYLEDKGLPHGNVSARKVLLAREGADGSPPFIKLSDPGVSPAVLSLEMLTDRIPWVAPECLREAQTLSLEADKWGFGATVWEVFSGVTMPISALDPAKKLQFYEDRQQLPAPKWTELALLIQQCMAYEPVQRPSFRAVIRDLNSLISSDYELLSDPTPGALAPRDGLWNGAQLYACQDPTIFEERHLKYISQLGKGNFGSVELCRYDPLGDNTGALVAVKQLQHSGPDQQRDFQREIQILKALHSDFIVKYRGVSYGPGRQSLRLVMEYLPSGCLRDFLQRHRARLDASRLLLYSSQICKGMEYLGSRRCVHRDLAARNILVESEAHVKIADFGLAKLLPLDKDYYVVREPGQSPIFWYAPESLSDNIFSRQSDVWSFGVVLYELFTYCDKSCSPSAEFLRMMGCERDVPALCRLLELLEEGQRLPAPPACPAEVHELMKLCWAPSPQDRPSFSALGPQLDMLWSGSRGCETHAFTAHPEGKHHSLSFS
# How it was run: as §1
# CDK7 = CDK7 (Homo sapiens, UniProt P50613); assay: experiment of inhibiting kinase activity (Caliper mobility shift assay), CDK7; format: biochemical; settings: at 100 nM; read-out: inhibition rate CDK7
# How it was run: as §1
# CDK9 = CDK9 (Homo sapiens, UniProt P50750); assay: experiment of inhibiting kinase activity (Caliper mobility shift assay), CDK9; format: biochemical; settings: for inhibition at 0.01 µM: at 10 nM; for IC50: kinase activity assay, Table 3
# How it was run: as §1
# MV-4-11 cells = assay: CDK9 cell activity test (Cell Titer-GLO cell growth inhibition), MV-4-11; format: cell-based; settings: Homo sapiens, MV4-11, 72 hours
# Description: In these experiments, the cell line MV-4-11 was cultured in IMDM culture solution (containing 100 U/mL penicillin and 0.1 g/L streptomycin), the cell line HCC1187 was cultured in RPMI-1640 culture solution (containing 100 U/mL penicillin and 0.1 g/L streptomycin) containing 10% fetal bovine serum, the cell line Mia Paca-2 was cultured in DMEM (containing 100 U/mL penicillin and 0.1 g/L streptomycin) containing 10% fetal bovine serum and 2.5% horse serum, and the cell line A375 was cultured in RPMI-1640 culture solution (containing 100 U/mL penicillin and 0.1 g/L streptomycin) containing 10% fetal bovine serum. All cells were cultured in a saturated humidity incubator with 37 °C and 5% CO2.
# When MV-4-11 cells, HCC-1187 cells, Mia Paca-2 cells and A375 cells grew to 80% -90% confleuncy, they were digested with trypsin, resuspended, counted and diluted to a certain cell density with complete medium, and inoculated into 96-well plate at 100 µL/well. With complete medium as background control, they were cultured overnight in a saturated humidity incubator with 37°C and 5% CO2. The compound was diluted to 200-fold of the final concentration using DMSO, 3 µL of DMSO storage solution of the above compound was added to 197 µL of complete medium, 50 µL of compound diluted in medium was added to cells in each well, and cultivated in a saturated humidity incubator with 37°C and 5% CO2 for 72 hours. After 72 hours, the culture plate was placed at room temperature for equilibrium, and 40 µl of Cell Titer-GLO® reagent was added to each well. The cells were lysed by mixing evenly for 2 minutes using a shaker, incubated at room temperature for 60 minutes to stabilize the chemiluminescence signal, and the chemiluminescence was read by PE EnVision microtiter plate reader. The cell growth inhibition rate Inh%=(DMSO well - compound treatment well)/(DMSO well - background well)×100 was calculated, and the cell growth IC50 value was obtained by fitting with GraphPad Prism 5 .
# [1] = measurement of the solubility of compounds in water and diluted hydrochloric acid; format: physicochemical; settings: thermodynamic from solid
# Description: Example 117: measurement of the solubility of compounds in water and diluted hydrochloric acid
# The compounds were dissolved in acetonitrile (LCMS pure) and prepared into standard samples having the concentration gradient of 1000 µg/mL, 500 µg/mL, 250 µg/mL, 125 µg/mL, 62.5 µg/mL, and 31.25 µg/mL.
# (§5) About 1.0 mg of the powder of the compound to be tested was weighed and added to 0.3 mL of ultrapure water (pH-6), the resulting mixture was shaked thoroughly at room temperature overnight and centrifuged, and the supernatant was taken and diluted 10 times with acetonitrile. The sample was analyzed after mixing evenly.
# as §5, with “153.8 µL of 6 M HCl was pipetted, 20 mL of water was added, and mixed evenly to prepare diluted hydrochloric acid solution A (pH-1.5). About” for “About”, “diluted hydrochloric acid solution A,” for “ultrapure water (pH-6),”, “for 1 hour” for “overnight”
# The standard sample and the sample to be tested were analyzed by Shimadzu LCMS-2020, where chromatographic column was Skim-psck GIST 5 µm C18 2.1*[…]; mobile phase A was water and mobile phase B was methanol; and flow rate was 0.3 mL/min. The gradient of B was as the following: 0 min: 10%; 0-1.0 min: 10%; 1.0-2.5 min: 95%; 3.0-4.0 min: 95%; 4.0-4.1 min: 10%; 4.1-6.0 min: 10%.
# The relationship between the concentration and peak area of the standard sample was ploted into a standard curve, and the concentration of the sample to be tested was calibrated using this standard curve. Compound solubility = concentration of the sample to be tested × 10 [formula]
# Chain of JAK1 (P23458 whole entry): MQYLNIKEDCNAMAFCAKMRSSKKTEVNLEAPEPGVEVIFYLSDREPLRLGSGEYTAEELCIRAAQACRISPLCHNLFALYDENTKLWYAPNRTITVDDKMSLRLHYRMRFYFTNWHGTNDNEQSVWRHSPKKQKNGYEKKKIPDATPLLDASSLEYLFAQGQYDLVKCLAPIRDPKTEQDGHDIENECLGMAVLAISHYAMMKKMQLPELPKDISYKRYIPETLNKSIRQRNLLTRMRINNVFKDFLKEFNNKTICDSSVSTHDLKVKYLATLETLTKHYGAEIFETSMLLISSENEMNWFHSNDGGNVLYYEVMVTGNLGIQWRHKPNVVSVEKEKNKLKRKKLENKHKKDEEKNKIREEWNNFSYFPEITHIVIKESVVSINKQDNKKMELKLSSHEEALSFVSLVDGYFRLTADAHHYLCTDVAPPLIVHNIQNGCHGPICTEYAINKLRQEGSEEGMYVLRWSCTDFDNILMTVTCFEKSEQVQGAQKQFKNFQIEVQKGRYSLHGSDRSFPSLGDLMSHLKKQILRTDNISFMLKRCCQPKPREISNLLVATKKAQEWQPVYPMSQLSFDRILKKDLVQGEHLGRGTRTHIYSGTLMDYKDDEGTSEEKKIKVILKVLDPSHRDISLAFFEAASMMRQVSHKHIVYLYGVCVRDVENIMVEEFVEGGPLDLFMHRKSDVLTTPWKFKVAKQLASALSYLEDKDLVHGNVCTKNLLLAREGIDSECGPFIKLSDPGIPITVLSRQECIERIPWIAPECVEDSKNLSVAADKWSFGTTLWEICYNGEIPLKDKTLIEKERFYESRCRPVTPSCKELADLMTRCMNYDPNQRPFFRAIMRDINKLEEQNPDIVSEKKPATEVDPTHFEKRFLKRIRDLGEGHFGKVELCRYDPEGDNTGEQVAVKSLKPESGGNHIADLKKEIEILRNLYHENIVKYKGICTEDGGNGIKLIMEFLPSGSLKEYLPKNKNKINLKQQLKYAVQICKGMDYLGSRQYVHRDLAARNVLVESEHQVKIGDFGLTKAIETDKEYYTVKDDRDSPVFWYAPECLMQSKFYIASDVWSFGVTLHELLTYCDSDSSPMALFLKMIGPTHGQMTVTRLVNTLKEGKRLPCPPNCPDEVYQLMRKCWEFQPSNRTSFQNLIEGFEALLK
inhibition at 0.01 µM (JAK1) [%],inhibition at 0.01 µM (JAK2) [%],inhibition at 0.01 µM (TYK2) [%],"inhibition at 0.01 µM (LRRK2; at 10 nM, read-out: inhibition rate LRRK2) [%]",IC50 (LRRK2) [nM],EC50 (wild-type LRRK2) [nM],EC50 (LRRK2 (G2019S)) [nM],inhibition at 0.1 µM (JAK1; at 100 nM) [%],inhibition at 0.1 µM (JAK2; at 100 nM) [%],inhibition at 0.1 µM (JAK3) [%],inhibition at 0.1 µM (TYK2; at 100 nM) [%],inhibition at 0.1 µM (CDK7) [%],inhibition at 0.01 µM (CDK9; read-out: inhibition rate CDK9) [%],"inhibition at 0.1 µM (CDK9; at 100 nM, read-out: inhibition rate CDK9) [%]",IC50 (CDK9) [nM],"inhibition at 0.1 µM (LRRK2; at 100 nM, read-out: inhibition rate LRRK2) [%]",IC50 (MV-4-11 cells) [nM],"solubility at 1 h ([1]; simulated gastric fluid, diluted hydrochloric acid solution A (pH-1.5), room temperature, 1 hour) [µg/mL]","solubility ([1]; ultrapure water (pH-6), room temperature overnight) [µg/mL]",Compound
25 to 39,> 80,40 to 79,> 80,< 50,< 500,< 500,–,–,–,–,–,–,–,–,–,–,–,–,"CN1CCOc2ccc(Nc3ncc(C(F)(F)F)c(Nc4ccccc4P(C)(C)=O)n3)cc2OCC1 [Example 83, dimethyl(2-((2-((4-methyl-3,4,5,6-tetrahydro-2H-benzo[b][1,4,7]dioxazolin-9-yl)amino)-5-(trifluoromethyl)pyrimidin-4-yl)amino)phenyl)phosphine oxide]"
25 to 39,> 80,40 to 79,–,–,–,–,> 80,> 80,40 to 79,> 80,40 to 79,40 to 79,> 80,< 50,40 to 79,< 100,–,–,"CN1CCOCCOc2ccc(Nc3ncc(F)c(-c4ccc(C(=O)NCC#N)cc4)n3)cc2OCC1 [Example 44, N-(cyanomethyl)-4-(5-fluoro-2-((7-methyl-2,3,6,7,8,9-hexahydro-5H-benzo[b] [1,4,7]trioxa[10]azacyclododecan-12-yl)amino)pyrimidin-4-yl)benzamide]"
–,–,–,–,< 50,< 500,< 500,–,–,–,–,–,–,–,–,–,–,> 3070,368,"CN1CCOCCOc2ccc(Nc3nc(O[C@H]4CC[C@@](C)(O)CC4)c4cc[nH]c4n3)cc2OCC1 [Example 6, 1-methyl-4-((2-((7-methyl-2,3,6,7,8,9-hexahydro-5H-benzo[b][1,4,7]trioxa[10]azacyclododecan-12-yl)amino)-7H-pyrrolo[2,3-d]pyrimidin-4-yl)oxy)cyclohexanol]"
–,–,–,–,–,–,–,–,–,–,–,–,40 to 79,–,< 50,–,100 to 1000,–,–,"COc1ccc(F)cc1-c1nc(Nc2ccc3c(c2)OCCN(C)CCOCCO3)ncc1F [Example 114, N-(5-fluoro-4-(5-fluoro-2-methoxyphenyl)pyrimidin-2-yl)-7-methyl-2,3,6,7,8,9-hexahydro-5H-benzo[b][1,4,7]trioxa[10]azacyclododecan-12-amine]"
